Reference: the supplement of paper PMC10627819

Legend:
Assay in all cases: fitness (endpoint OD595 vs no drug) (fraction); higher = more growth
B. subtilis 168 = tested on: B. subtilis 168
Outline: (§1)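 Fitness was measured as bacterial growth in 384-well plates inoculated at OD595 0.01 (30 µl, or 55 µl for S. pneumoniae). Media were TSB, LB Lennox or CY, at 37 °C. OD595 was read every 30 min for 14 h and background-subtracted against the first reading. Fitness is OD595 at the transition into stationary phase divided by the robust mean of no-drug control wells, capped at 1.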

S. aureus DSM 20231 = tested on: S. aureus DSM 20231
Outline: as §1

S. pneumoniae D39V = tested on: S. pneumoniae D39V
Outline: as §1
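Also: OD595 on entry to stationary phase over no-drug wells; at most 1.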

CN(C)[C@@H]1C(O)=C(C(N)=O)C(=O)[C@@]2(O)C(O)=C3C(=O)c4c(O)ccc(Cl)c4[C@@](C)(O)[C@H]3C[C@@H]12 [Chlortetracycline] + CN1C2=CC=CC=C2N=C3C1=CC=CC3=O [Pyocyanin]
fitness
Details | partner 0.325 µg/mL | partner 0.65 µg/mL | partner 1.25 µg/mL | partner 1.3 µg/mL | partner 2.5 µg/mL | partner 5 µg/mL
B. subtilis 168, first compound 0.0475 µg/mL | – | – | 0.837 | – | 0.825 | 0.692
B. subtilis 168, first compound 0.095 µg/mL | – | – | 0.774 | – | 0.7 | 0.597
B. subtilis 168, first compound 0.19 µg/mL | – | – | 0.594 | – | 0.529 | 0.416
S. aureus DSM 20231, first compound 0.012 µg/mL | – | – | 0.487 | – | 0.43 | 0.359
S. aureus DSM 20231, first compound 0.024 µg/mL | – | – | 0.185 | – | 0.147 | 0.121
S. aureus DSM 20231, first compound 0.048 µg/mL | – | – | 0.0813 | – | 0.0826 | 0.0871
S. pneumoniae D39V, first compound 0.375 µg/mL | 0.0228 | 0.0497 | – | 0.031 | – | –
S. pneumoniae D39V, first compound 0.75 µg/mL | 0.0553 | 0.0813 | – | 0.104 | – | –
S. pneumoniae D39V, first compound 1.5 µg/mL | 0.0507 | 0.0698 | – | 0.0588 | – | –

one replicate
Details | fitness
S. aureus DSM 20231, first compound 0.006 µg/mL, partner 1.25 µg/mL | 0.748
S. aureus DSM 20231, first compound 0.006 µg/mL, partner 2.5 µg/mL | 0.692
S. aureus DSM 20231, first compound 0.006 µg/mL, partner 5 µg/mL | 0.602
S. pneumoniae D39V, first compound 0.012 µg/mL, partner 0.325 µg/mL | 0.893
S. pneumoniae D39V, first compound 0.012 µg/mL, partner 0.65 µg/mL | 0.958
S. pneumoniae D39V, first compound 0.024 µg/mL, partner 0.325 µg/mL | 0.932
S. pneumoniae D39V, first compound 0.024 µg/mL, partner 0.65 µg/mL | 0.885
S. pneumoniae D39V, first compound 0.048 µg/mL, partner 0.325 µg/mL | 0.858
S. pneumoniae D39V, first compound 0.048 µg/mL, partner 0.65 µg/mL | 0.868

CN(C)[C@@H]1C(O)=C(C(N)=O)C(=O)[C@@]2(O)C(O)=C3C(=O)c4c(O)ccc(Cl)c4[C@@](C)(O)[C@H]3C[C@@H]12 [Chlortetracycline] + CN[C@@H]1[C@H](O)[C@H](NC)[C@H]2O[C@@]3(O)C(=O)C[C@@H](C)O[C@H]3O[C@@H]2[C@H]1O [Spectinomycin]
fitness
Details | partner 2 µg/mL | partner 4 µg/mL | partner 8 µg/mL | partner 16 µg/mL
B. subtilis 168, first compound 0.0475 µg/mL | 0.885 | 0.884 | 0.752 | –
B. subtilis 168, first compound 0.095 µg/mL | 0.803 | 0.806 | 0.691 | –
B. subtilis 168, first compound 0.19 µg/mL | 0.523 | 0.409 | 0.199 | –
S. aureus DSM 20231, first compound 0.012 µg/mL | – | 0.529 | – | 0.494
S. aureus DSM 20231, first compound 0.024 µg/mL | – | 0.203 | – | –
S. aureus DSM 20231, first compound 0.048 µg/mL | – | 0.137 | 0.0943 | 0.05
S. pneumoniae D39V, first compound 0.375 µg/mL | – | 0.0802 | 0.0586 | 0.0693
S. pneumoniae D39V, first compound 0.75 µg/mL | – | 0.0886 | 0.0941 | 0.0722
S. pneumoniae D39V, first compound 1.5 µg/mL | – | 0.0871 | 0.0754 | 0.0779

fitness, one replicate
Details | first compound 0.006 µg/mL | first compound 0.012 µg/mL | first compound 0.024 µg/mL | first compound 0.048 µg/mL
S. aureus DSM 20231, partner 4 µg/mL | 0.669 | – | – | –
S. aureus DSM 20231, partner 8 µg/mL | 0.707 | – | – | –
S. aureus DSM 20231, partner 16 µg/mL | 0.655 | – | – | –
S. aureus DSM 20231, partner 32 µg/mL | – | 0.298 | 0.058 | 0.0249
S. aureus DSM 20231, partner 64 µg/mL | – | 0.0229 | 0.0093 | 0.0056
S. pneumoniae D39V, partner 4 µg/mL | – | 0.901 | 0.859 | 0.795
S. pneumoniae D39V, partner 8 µg/mL | – | 0.853 | 0.859 | 0.78
